pIC50: −log10 of the molar value. Structures can show the parent of a compound that is named as a salt. Where two headings read alike, the source gives them in different places.

The test system of series [1] is SUDHL5. In words: Induction of cytotoxicity (Assay 6), SUDHL5. The settings on record: read-out: Cytotox SUDHL5 [M] (median) IC50, CellTiter-Glo, 5 hours, SUDHL5. For orientation: ATP-based viability assays read luminescence as a measure of living cells.
For a further series, the system named is SK-MEL-2. In words: Antiproliferation assay (Assay 7), SK-MEL-2. The series is classed as cell-based. The settings on record: CellTiter-Glo, 72 hours, median, read-out: Antiproli SK-MEL-2 [M] median IC50. As for the experimental part:
(§1) Assessment of the Anti-Proliferative Effect of Compounds in Different Cell Lines
(§2) The impact of compounds on the proliferation of different cell lines was assessed using the CellTiter-Glo® Luminescent Cell Viability reagent from Promega (G7573).
(§3) In parallel, cells were plated in a reference (day 0) plate for time zero determination.
(§4) Rim wells were excluded. The cells were incubated for 72 hours in a humidified incubator at 37° C. The day 0 plate was measured by adding 30 μL/well of CTG solution (CellTiter-Glo® Luminescent Cell Viability reagent, Promega G7573) to time zero wells in the reference plate followed by a 10 minutes incubation and luminescence reading at 0.1 ms. using the PHERAstar FS microplate reader (BMG Labtech).
(§5) After 72 hours incubation, the treated plates were measured in the same way as the day 0 plate mentioned above.

The test system of another series is PA-1. The experiment in a line: Antiproliferation assay (Assay 7), PA-1. The series is classed as cell-based. The conditions noted are these: CellTiter-Glo, 72 hours, median, read-out: Antiproli PA-1 [M] median IC50. The method, then:
as §1, §2, §3, §4, §5

Series [2] addresses SUDHL5. In words: Induction of caspase-3/7 activity (Assay 4), SUDHL5. The settings on record: caspase-3/7 induction, 3 hours, median. The series is classed as cell-based. The method in brief: (§6)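 DLBCL cells were exposed to compounds for 3 hours at 37 °C, then caspase-3/7 activation was read with Caspase-Glo 3/7 reagent. After subtracting medium-only background, EC50s were derived with fixed C0=1 and the reference compound's maximal induction as plateau.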

The target in the next series is MCL-1 (Homo sapiens (Human), UniProt Q07820, K194A/K197A/R201A). In words: Protein-protein interaction assay MCL-1/Noxa BH3 peptide (MCL-1 assay, TR-FRET). The series is classed as binding. The settings on record: MBP-MCL-1 / Noxa BH3 peptide, median. The method in brief: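 TR-FRET competition assay read at 665/620 nm, with a Noxa BH3 tracer peptide (1 nM) plus Eu-cryptate anti-MBP and XL665-streptavidin. Compounds (0.1 nM-20 μM, duplicates) were pre-equilibrated 10 min at 22° C with 1 nM MBP-MCL-1 (173-329) in Tris pH 7, NaCl, KF, DTT buffer, then incubated 1 h at 22° C and overnight at 4° C. IC50 came from 4-parameter regression.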
(In general: Time-resolved FRET reads energy transfer from a long-lived donor to a nearby acceptor.)

In series [3] the test system is SUDHL10. The experiment in a line: Induction of cytotoxicity (Assay 6), SUDHL10. The settings on record: read-out: Cytotox SUDHL10 [M] (median) IC50, CellTiter-Glo, 5 hours, SUDHL10.
In a further series the test system is HMC-1-8. In words: Antiproliferation assay (Assay 7), HMC-1-8. It counts as cell-based. The conditions noted are these: CellTiter-Glo, 72 hours, several values per example, read-out: Antiproli HMC-1-8 [M] IC50. The method, then:
as §1, §2, §3, §4, §5

The subject of series [4] is SUDHL5. In words: Antiproliferation assay (Assay 7), SUDHL5. The series is classed as cell-based. The settings on record: CellTiter-Glo, 72 hours, median, read-out: Antiproli SUDHL5 [M] (median) IC50. In a few lines: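 Plate cells in treatment and day 0 reference plates; read day 0 plate with CellTiter-Glo after 10 min; incubate treated plates 72 h at 37° C; read them identically.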

In a further series the test system is A-431. The experiment in a line: Antiproliferation assay (Assay 7), A-431. It counts as cell-based. The settings on record: CellTiter-Glo, 72 hours, median, read-out: Antiproli A-431 [M] median IC50. The method, then:
as §1, §2, §3, §4, §5

A further series concerns SNU-16. The experiment in a line: Antiproliferation assay (Assay 7), SNU-16. It counts as cell-based. The conditions noted are these: CellTiter-Glo, 72 hours, median, read-out: Antiproli SNU-16 [M] median IC50. The method, then: as §1, §2, §3, §4, §5
Series [5] has as its target SUDHL10. In words: Induction of caspase-3/7 activity (Assay 4), SUDHL10. The conditions noted are these: caspase-3/7 induction, 3 hours, median. The series is classed as cell-based. In a few lines: as §6
The test system of a further series is DM-S114. In words: Antiproliferation assay (Assay 7), DM-S114. It counts as cell-based. The settings on record: CellTiter-Glo, 72 hours, median, read-out: Antiproli DM-S114 [M] median IC50. The method, then: as §1, §2, §3, §4, §5
For series [6], the system named is SUDHL5.
In a further series the test system is AMO-1. The experiment in a line: Antiproliferation assay (Assay 7), AMO-1. It counts as cell-based. The conditions noted are these: CellTiter-Glo, 72 hours, several values per example, read-out: Antiproli AMO-1 [M] IC50. As for the experimental part:
as §1, §2, §3, §4, §5

Series [7] has as its system SUDHL10.

MCL-1, sequence (Q07820 whole entry K194A/K197A/R201A, looked up): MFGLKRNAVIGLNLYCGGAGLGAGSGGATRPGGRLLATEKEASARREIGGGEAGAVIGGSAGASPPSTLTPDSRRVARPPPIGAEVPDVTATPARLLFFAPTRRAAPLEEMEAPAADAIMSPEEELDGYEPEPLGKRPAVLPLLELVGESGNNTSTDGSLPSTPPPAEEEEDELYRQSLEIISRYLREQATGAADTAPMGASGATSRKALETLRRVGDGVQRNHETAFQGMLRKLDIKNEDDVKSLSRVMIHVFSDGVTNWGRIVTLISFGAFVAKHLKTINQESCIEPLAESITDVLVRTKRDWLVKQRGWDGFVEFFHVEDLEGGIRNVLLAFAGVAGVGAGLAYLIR

Broadly, the IC50 is the concentration at which inhibition is half-maximal. What is called EC50 is the concentration needed to bring the measured effect to its halfway point. As to `CCc1c2c(nn1C)C(CCN1CCOCC1)N(C)S(=O)(=O)CCCn1c(C(=O)O)c(CCCOc3cccc4cc(F)ccc34)c3ccc(Cl)c-2c31` (single isomer, unassigned; enantiomer 1) [Example 75, 4-chloro-3-ethyl-7-{3-[(6-fluoronaphthalen-1-yl)oxy]propyl}-2,14-dimethyl-15-[2-(morpholin-4-yl)ethyl]-13,13-dioxo-10,11,12,13,14,15-hexahydro-2H-13lambda^6-pyrazolo[3′,4′:4,5][1,2,8]thiadiazacycloundecino[6,7,8-hi]indole-8-carboxylic acid-N-ethylethanamine Salt (Enantiomer 1)], the IC50 is 1.6e-05 M in the series with SUDHL5 [1]; 4.64e-07 M in the series on SK-MEL-2; 3.2e-08 M in the series on PA-1; 150 nM against MCL-1; 1.6e-05 M with SUDHL10 [3]; over 3.3e-05 M in the series with HMC-1-8. Besides, the IC50 in the series with SUDHL5 [4] was 1.4e-05 M; in the series with A-431, 3.24e-07 M; in the series with SNU-16 it was 1.26e-07 M; in the series with DM-S114, 3.66e-08 M. The EC50 was 11000 nM on SUDHL5 [2] and 35000 nM at SUDHL10 [5].

The term pIC50 denotes −log10 of the IC50, conventionally taken in molar units. A high value points to a low IC50. Take `CCc1c2c(nn1C)C(CCN1CCOCC1)N(C)S(=O)(=O)CCCn1c(C(=O)O)c(CCCOc3cccc4cc(F)ccc34)c3ccc(Cl)c-2c31` (racemic) [Example 74, (rac) 4-chloro-3-ethyl-7-{3-[(6-fluoronaphthalen-1-yl)oxy]propyl}-2,14-dimethyl-15-[2-(morpholin-4-yl)ethyl]-13,13-dioxo-10,11,12,13,14,15-hexahydro-2H-13lambda6-pyrazolo[3′,4′:4,5][1,2,8]thiadiazacycloundecino[6,7,8-hi]indole-8-carboxylic acid (Racemate 2)]: the EC50 on SUDHL5 [2] was 11 nM; on SUDHL10 [5], 14 nM. In addition, the concentration for half-maximal inhibition (IC50) was found to be 1.1 nM against MCL-1, 3.9e-08 M in the series with AMO-1, 3.2e-07 M in the series with HMC-1-8 and 9.9e-09 M in the series on SUDHL5 [4]. Moreover, the pIC50 in the series on SUDHL5 [6] is 7.89; with SUDHL10 [7] it was 7.77.

For `CCc1c2c(nn1C)C(CCN1CCOCC1)N(C)S(=O)(=O)CCCn1c(C(=O)O)c(CCCOc3cccc4cc(F)ccc34)c3ccc(Cl)c-2c31` (single isomer, unassigned) [Example 72, 4-chloro-3-ethyl-7-{3-[(6-fluoronaphthalen-1-yl)oxy]propyl}-2,14-dimethyl-15-[2-(morpholin-4-yl)ethyl]-13,13-dioxo-10,11,12,13,14,15-hexahydro-2H-13lambda6-pyrazolo[3′,4′:4,5][1,2,8]thiadiazacycloundecino[6,7,8-hi]indole-8-carboxylic acid (Mixture of Stereoisomers)], the half-maximal effective concentration (EC50) was 15 nM on SUDHL5 [2] and 27 nM on SUDHL10 [5]. The IC50 against MCL-1 turned out to be 1.1 nM. In addition, the pIC50 with SUDHL5 [6] was 8.06; with SUDHL10 [7] it was 7.47.

For the origin of these results see patent US11401278B2, “Macrocyclic indole derivatives” (The Broad Institute, Inc., priority 2017, dated 2022).
